These results are taken from PubChem BioAssay AID1996.

Values after ≈ are worked out from the molar mass of the structure shown.

For the data set the following is noted: buffer; pH 7.4; 200.0 µM.
On to `Cc1ccc(CNC(=O)CSc2nc(C)cs2)cc1`, for which the solubility (kinetic) was > 43.9 µg/mL.
With `CCCc1cc(=O)[nH]c(SCC(=O)NC2CC2)n1`, the kinetic solubility was > 40.1 µg/mL.
As for `CC(C)c1ccc(CNC(=O)CCc2ccccc2)cc1`, the figure is 31.2 µg/mL (≈ 111 µM); as for `C=CCN1C(=O)CSC1=Nc1ccc(NC(C)=O)cc1`, 42 µg/mL (≈ 145 µM); as for `CC(=O)Nc1nc(CC(C)C)cc(-c2ccccc2)c1C#N`, > 44 µg/mL.
As for `CCN(CC)C(=N)/C(C#N)=N/Nc1ccccc1`, the kinetic solubility was > 36.5 µg/mL.
Consider `COc1ccc(OC)c(C(=O)Cn2cnc3ccccc3c2=O)c1`, for which the kinetic solubility is 0.9 µg/mL (≈ 2.77 µM).
Consider `O=C(O)C1C2CCC(O2)C1C(=O)Nc1ccc(OC(F)F)cc1` (configuration not stated), for which the solubility (kinetic) came to 44.3 µg/mL (≈ 135 µM). Compared with the last compound, the solubility kinetic is about 49-fold higher.
With `CNC(=O)c1ccc(NC(=O)/C=C/c2cccc(F)c2)cc1`, the kinetic solubility turned out to be 1.4 µg/mL (≈ 4.69 µM). This solubility kinetic is about 32-fold lower than that of the compound before.
`CCOC(=O)c1sc(-c2cccc(C(F)(F)F)c2)nc1O` showed a solubility (kinetic) of 36.5 µg/mL (≈ 115 µM). Compared with the last compound, the solubility kinetic is about 26-fold higher.
For the compound `O=C(NC1CCCCCC1)C(Cc1ccccc1)n1cccc1` (configuration not stated), the solubility (kinetic) was found to be 10.6 µg/mL (≈ 34.1 µM).
In the case of `S=c1[nH]ccn1-c1ccccc1Cl`, the kinetic solubility was > 31.6 µg/mL.
As for `CC(C)c1ccc(OC(=O)c2ccc3c(=O)n4c(nc3c2)CCC4)cc1`, the figure is 8.3 µg/mL (≈ 23.8 µM).
The value for `COc1ccc(CC(=O)OC(C)C(=O)Nc2c(C)n(C)n(-c3ccccc3)c2=O)cc1OC` (configuration not stated) was > 68 µg/mL; that for `O=C(COc1ncnc2ccccc12)N1CCN(c2ccccc2)CC1` was > 52.3 µg/mL; that for `Cc1nc(SCC(=O)N2CCOCC2)c2c3c(sc2n1)CCC3` was 32.8 µg/mL (≈ 93.9 µM).
As for `CC1CCN(C(=O)c2ccc(S(=O)(=O)N3CCCCCC3)cc2)CC1`, the figure is 26 µg/mL (≈ 71.3 µM); as for `O=C(Nc1cccc(NC(=O)c2ccccc2)n1)c1ccccc1`, 16.8 µg/mL (≈ 52.9 µM); as for `S=C(Nc1ccccc1)Nc1ccccc1Br`, 16.4 µg/mL (≈ 53.4 µM).
For the compound `Cc1cc(NC(=O)c2cccc(S(=O)(=O)Nc3cccc(C(=O)O)c3)c2)no1`, the kinetic solubility was > 60.2 µg/mL.
Regarding `Cc1ccc2sc(NC(=O)C3CC3)nc2c1C`, the solubility (kinetic) stood at 1.3 µg/mL (≈ 5.28 µM).
With `CC(=O)NC(CSc1cc(C)nc2ccc(Br)cc12)C(=O)O` (configuration not stated), the kinetic solubility worked out at 57.2 µg/mL (≈ 149 µM). This solubility kinetic is about 44-fold higher than that of the compound before.
As for `Cc1cccc(C)c1NC(=O)N1C2CCC1CC(O)(c1cccnc1)C2` (configuration not stated), the figure is > 52.7 µg/mL; as for `CN(C)CCCNc1oc(-c2ccc(Cl)cc2)nc1S(=O)(=O)c1ccccc1`, > 63 µg/mL; as for `CN(C)S(=O)(=O)c1cccc(C(=O)Nc2ccc(C(=O)Nc3cccc(S(N)(=O)=O)c3)cc2)c1`, 9 µg/mL (≈ 17.9 µM).
As for `Cl.Nc1cccc(Nc2ncnc3ccccc23)c1`, the kinetic solubility came out at 31.9 µg/mL.
`Cc1ccc(C(=O)NCCC(=O)NCc2ccco2)cc1`: the solubility (kinetic) is > 42.9 µg/mL.
With `Cc1cc(NC(=O)NC2CC(=O)N(c3ccc4c(c3)OCCO4)C2)no1` (configuration not stated), the solubility (kinetic) is 48.5 µg/mL (≈ 135 µM).
With `O=C(NC(O)C(=O)c1ccccc1)c1ccc(F)cc1` (configuration not stated), the solubility (kinetic) was 39.7 µg/mL (≈ 145 µM).
Consider `CC(=O)NC(CC(=O)N1CCCC1)c1ccccc1` (configuration not stated), for which the solubility (kinetic) was > 39.1 µg/mL.
With `CC(C)(C)c1ccc(/C=C(\C#N)C(=O)NC2CC2)cc1`, the solubility (kinetic) amounted to 3.7 µg/mL (≈ 13.8 µM).
`CCN1C(=O)/C(=C2\SC(N3CCOCC3)=NC2=O)c2ccccc21` showed a kinetic solubility of 0.9 µg/mL (≈ 2.62 µM).
`CCn1c(SCc2nc3ccccc3c(=O)[nH]2)nc2ccccc21` gave a kinetic solubility of 1.1 µg/mL (≈ 3.27 µM). The solubility kinetic values of the last two compounds are within 1.5-fold of each other.
As for `O=C(Nc1ccccc1)c1cccc(Cn2cc(C(F)(F)F)ccc2=O)c1`, the figure is 2 µg/mL (≈ 5.37 µM).
As for `Cc1cc(C)c2c(N)c(C(=O)N3CCc4ccccc4C3)sc2n1`, the figure is 5.5 µg/mL (≈ 16.3 µM).
The value for `O=C(COc1ccc(F)cc1F)Nc1cccnc1` was 36.2 µg/mL (≈ 137 µM); that for `Cc1cccc(OC(C)C(=O)N2CCc3ccccc3C2)c1` (configuration not stated) was 36 µg/mL (≈ 122 µM); that for `CCCSc1nc2sc3c(c2c(=O)n1CC)CC(C)(C)OC3` was < 0.4 µg/mL.
`COc1ccc(Br)cc1S(=O)(=O)NCCc1cccs1`: the kinetic solubility amounted to 34.4 µg/mL (≈ 91.4 µM).
Regarding `Cc1ccccc1NC(=S)N(Cc1ccccc1)Cc1cccnc1`, the solubility (kinetic) amounted to 43.9 µg/mL (≈ 126 µM).
As for `CCOc1ccc2[nH]c(SCC(=O)OC)c([N+](=O)[O-])c2c1`, the figure is 19.1 µg/mL (≈ 61.5 µM); as for `CN(C)c1ccc(C(=O)NCCCSc2ccccc2)cc1`, 3.9 µg/mL (≈ 12.4 µM).
`Fc1cccc(NC(=S)N2CCN(c3ccccn3)CC2)c1` had a solubility (kinetic) of 5.6 µg/mL (≈ 17.7 µM).
For `O=C(CNCc1ccc(Cl)cc1)N1CCc2ccccc2C1`, the kinetic solubility was 36.8 µg/mL (≈ 117 µM).
`COc1ccc(NC(=O)c2cc3ccccc3o2)cc1S(=O)(=O)N1CCCCC1` returned a solubility (kinetic) of 9.2 µg/mL (≈ 22.2 µM).
In turn, `COc1ccc2c(C)cc(SCC(=O)NC3CCCCC3)nc2c1` came in with a solubility (kinetic) of 1.3 µg/mL (≈ 3.77 µM).
With `CN(CCOc1ccccc1)CCOc1ccccc1`, the solubility (kinetic) was 32.8 µg/mL (≈ 121 µM).
Regarding `COC(=O)C1CCN(C(=O)COC(=O)c2cc(S(=O)(=O)N3CCOCC3)ccc2C)CC1`, the solubility (kinetic) is > 70.3 µg/mL.
In the case of `CCCCc1c(O)nc(SCC(=O)N2CCCCC2)[nH]c1=O`, the kinetic solubility was > 48.8 µg/mL.
As for `O=C(NC1CCSC1)c1cccc(Cl)c1` (configuration not stated), the kinetic solubility was > 36.3 µg/mL.
`COc1ccccc1-n1c(O)c(/C=C2\C=Nc3ccccc32)c(=O)[nH]c1=O`: the solubility (kinetic) stood at 4.4 µg/mL (≈ 12.2 µM).
In turn, `CCc1ccc(C(=O)CN2C(=O)NC3(CCc4ccccc43)C2=O)cc1` (configuration not stated) came in with a kinetic solubility of 6.5 µg/mL (≈ 18.7 µM). The solubility kinetic values of the last two compounds are within 1.5-fold of each other.
